The test system of the test is Wnt/β-catenin pathway in hippocampal slices. As to the kind of experiment: β-catenin, GSK-3β and Dvl-3 western blot in hippocampal slices of wild-type mice. The format is cell-based. As for the experimental part: Slice preparation. […] Transverse slices (250-300 μm) from the dorsal hippocampus were cut under oxygen-saturated cold artificial cerebrospinal fluid using a Vibroslice microtome (VSL, World Precision Instruments, Inc WPI, Sarasota, Fla.). After obtained, slices were incubated in ACSF for at least than one hour at room temperature, in order to stabilize activity.
Immunoblotting. […] Briefly, tissues were homogenized in RIPA buffer (10 mM Tris-Cl, pH 7.4, EDTA 5 mM, 1% NP-40, 1% sodium deoxycholate, and 1% SDS) supplemented with a protease inhibitor mixture (1 mM PMSF, 2 μg/mL aprotinin, 1 μg/mL pepstatin and 10 μg/mL benzamidine) and phosphatase inhibitors (25 mMNaF, 100 mM Na3VO4, 1 mM EDTA and 30 μM Na4P207) using a Potter homogenizator and then passed sequentially through different caliber syringes. […] Protein concentration was determined using the BCA Protein Assay Kit (Pierce). […] The reactions were followed by incubation with anti-mouse, anti-goat or anti-rabbit IgG peroxidase conjugated (Pierce, Rockford, Ill.) and developed using an ECL kit (Western Lightning Plus ECL, PerkinElmer).

`C=C1CC[C@@H]2C(C)(CO)[C@H](O)CC[C@@]2(C)C1C/C=C1/C(=O)OC[C@H]1O` (stereo in doubt) [ANDRO, 3-(2-(Decahydro-6-hydroxy-5-(hydroxymethyl)-5,8a-dimethyl-2-methylenenaphthyl)ethylidene)dihydro-4-hydroxyfuran-2(3H)-one]: the “time at which total levels of β-catenin increased” value (5 μM ANDRO, Wnt3a conditioned medium or 10 nM 6-BIO, up to 1 h) stood at 15 min. Moreover, the “rate of increase of GSK3β Ser-9 and decrease of Tyr-216 phosphorylation” value (compared to Wnt-3a treatment) is recorded as “faster”. For the same compound, the “mobility shift (phosphorylation) of Dvl-3” value (hippocampal slices, 1 h) was “does not induce a mobility shift of Dvl-3”.

The record behind these values is patent US20220409573A1, “Hippocampus Regeneration And Memory Recovery” (INNOBIOSCIENCE, LLC, priority 2021, published 2022).
